# Laboratory results as given in patent publication US20020173468A1, “MODIFIED CYTOSTATIC AGENTS” (priority 1996, published 2002).
# Values joined by “and” are separate entries in the source; they are usually repeats but may differ in a detail not shown here. Identical values can stand only once. Counter-ions that a name gives are not always drawn.
# Tests used:
# [1] = system: HT 29 human colonic tumour cell line; experiment: Growth inhibition test (MTT) for cytotoxic properties, HT 29; assay type: cell-based; conditions: HT 29 cells
# Protocol: (§1) 1. Growth Inhibition Test for the Determination of Cytotoxic Properties
# (§2) They were then trypsinized and taken up in RPMI plus 10% FCS to give a cell count of 50,000 cells/ml. 100 μl of cell suspension/well were added to a 96 microwell plate and incubated for 1 day at 37° C. in a CO2 incubator. A further 100 μl of RPMI medium and 1 μl of DMSO were then added with the test substances. The growth was checked after day 3 and day 6. To do this, 40 μl of MTT solution (3-(4,5-dimethylthiazol-2-yl)-2,5-diphenyl-tetrazolin bromide) were added to each microwell at a starting concentration of 5 mg/ml of H2O. Incubation was carried out at 37° C. for 5 hours in the CO2 incubator. The medium was then aspirated and 100 μl of i-propanol/well were added. After shaking for 30 min with 100 μl of H2O, the extinction was measured at 540 nm using a Titertek Multiskan MCC/340 (flow).
# (§3) The cytotoxic action is indicated in Table 1 as an IC50 value in each case for the SW 480 and HT 29 and B16F10 cell lines: […]
# [2] = system: mouse bone marrow stem cells; experiment: Inhibition of the CSF-induced proliferation of mouse bone marrow stem cells (colony formation); assay type: cell-based; conditions: recombinant murine GM-CSF, 7 days; for IC50: Mus musculus, 168 h
# Protocol: 2. Haematopoietic Activity of Conjugates in Comparison with the Basic Active Compound
# Bone marrow cells were rinsed from mouse femurs. 10^5 cells were incubated in McCoy 5A medium (0.3% agar) together with recombinant murine GM-CSF (Genzyme; stem cell colony formation) and the substances (10^−4 to 100 μg/ml) at 37° C. and 7% CO2. 7 days later, the colonies ([…]50 cells) and clusters (17-50 cells) were counted.
# [3] = system: SW 480 human colonic tumour cell line; experiment: Growth inhibition test (MTT) for cytotoxic properties, SW 480; assay type: cell-based; conditions: SW 480 cells
# Protocol: as §1, §2, §3
# [4] = system: B16F10 mouse melanoma cell line; experiment: Growth inhibition test (MTT) for cytotoxic properties, B16F10; assay type: cell-based; conditions: B16F10 cells
# Protocol: as §1, §2, §3
# [5] = system: large-cell human lung tumour xenograft LXFL 529; experiment: In-vivo inhibition of tumour growth in the nude mouse model; parameters: species or system athymic nude mice (NMRI nu/nu strain); conditions: for Relative tumour volume on day 21: control 1137; for Survival time: individual animals
# Description: 3. In-vivo Inhibition of Tumour Growth in the Nude Mouse Model
# For all in-vivo experiments for investigation of the inhibition of tumour growth, athymic nude mice (NMRI nu/nu strain) were used. The selected large-cell lung carcinoma LXFL 529 was developed by serial passage in nude mice. The human origin of the tumour was confirmed by isoenzymatic and immunohistochemical methods.
# The tumour was implanted subcutaneously in both flanks of nu/nu nude mice 6 to 8 weeks old. The treatment was started, depending on the doubling time, as soon as the tumours had reached a diameter of 5-7 mm. The mice were assigned to the treatment group and to the control group (5 mice per group with 8-10 assessable tumours) by randomization. The individual tumours of the control group all grew progressively.
# The size of the tumours was measured in two dimensions by means of a slide gauge. The tumour volume, which correlated well with the cell count, was then used for all evaluations. The volume was calculated according to the formula “length×breadth×breadth/2” ([a×b^2]/2, a and b represent two diameters arranged at right angles).
# The values of the relative tumour volume (RTV) were calculated for each individual tumour by dividing the tumour size on day X by the tumour size on day 0 (at the time of randomization). The mean values of the RTV were then used for further evaluation.
# The inhibition of the increase in the tumour volume (tumour volume of the test group/control group, T/C, in per cent) was the final measured value.
# The administration of the compounds was carried out intraperitoneally (i.p.) on days 1, 2 and 3 after randomization.
# [6] = 6.25 mg/kg/day (MTD) i.p. days 1-3
SMILES,IC50 [1],IC50 [3],IC50 [4],further results
"Cl.NCCCCC(NC(=S)Nc1ccc(O)cc1)C(=O)NC1C=CCC2CN(c3c(F)cc4c(=O)c(C(=O)O)cn(C5CC5)c4c3Cl)CC21 (racemic) [2.4), N-[N^α-(4-Hydroxy-phenylamino-thiocarbonyl)-lysyl]-quinolone-a, hydrochloride]",900 nM,800 nM,1000 nM,"IC50, inhibition of the CSF-induced proliferation of mouse bone marrow stem cells [2]: 60.0 ng/mL"
"CC[C@@]1(OC(=O)[C@@H](NC(=O)[C@H](CCCCN)NC(=S)Nc2ccc(O)cc2)C(C)C)C(=O)OCc2c1cc1n(c2=O)Cc2cc3ccccc3nc2-1.Cl [Example 4.4), 20-O-[N^α-(4-Hydroxy-phenylamino-thiocarbonyl)-lysyl-valyl]-camptothecin, hydrochloride]",200 nM,300 nM,600 nM,"Relative body weight on day 21 ([5]; 3.125 mg/kg/day i.p. days 1-3): 105.8 % of day 0; Relative tumour volume on day 21 ([5]; 3.125 mg/kg/day i.p. days 1-3): 69.5 % of day 0; Survival time ([5]; 3.125 mg/kg/day i.p. days 1-3): >43 >43 days; Relative body weight on day 21 [5, 6]: 113.0 % of day 0; Relative tumour volume on day 21 [5, 6]: 0.2 % of day 0; Survival time ([5]; 6.25 mg/kg/day (MTD) i.p. days 1-3, hydrochloride): 7 days and > 43 days and >43 >43 days; Maximum tolerable dose (MTD) ([5]; i.p. on days 1, 2 and 3, nude mice): 6.25 mg/kg/day; Therapeutic efficacy against LXFL 529 xenograft (in words) ([5]; therapy at the MTD and at half the MTD): tumour remission; IC50, inhibition of the CSF-induced proliferation of mouse bone marrow stem cells [2]: 10 ng/mL"
"CCC1(OC(=O)C(C)NC(=O)C(CCCCNC(=S)Nc2ccc(O)cc2)NC(=S)Nc2ccc(O)cc2)C(=O)OCc2c1cc1n(c2=O)Cc2cc3ccccc3nc2-1 (stereo not drawn) [4.9), 20-O-[N^α,N^ε-bis-(4-Hydroxy-phenylamino-thiocarbonyl)-lysyl-alanyl]-camptothecin]",15 nM,20 nM,200 nM,"IC50, inhibition of the CSF-induced proliferation of mouse bone marrow stem cells [2]: 22 ng/mL"
"N[C@@H]1C=CC[C@@H]2CN(c3c(F)cc4c(=O)c(C(=O)O)cn(C5CC5)c4c3Cl)C[C@@H]21 (racemic) [Quinolone-a, 7-[(3aRS, 4RS, 7aSR)-4-amino-1,3,3a,4,7,7a-hexahydro-iso-indol-2-yl]-8-chloro-1-cyclopropyl-6-fluoro-1,4-dihydro-4-oxo-3-quinolinecarboxylic acid, reference compound]",,,,IC50 [2]: 0.2 ng/mL
"CC[C@@]1(O)C(=O)OCc2c1cc1n(c2=O)Cc2cc3ccccc3nc2-1 [Camptothecin, 20(S)-Camptothecin, reference compound]",,,,IC50 [2]: 0.4 ng/mL
"NCCCC(NC(=S)Nc1ccc(O)cc1)C(=O)NC1C=CCC2CN(c3c(F)cc4c(=O)c(C(=O)O)cn(C5CC5)c4c3Cl)CC21 (racemic) [2.6), N-[N^α-(4-Hydroxy-phenylamino-thiocarbonyl)-ornithyl]-quinolone-a, hydrochloride]",300 nM,200 nM,60 nM,
"CC[C@@]1(OC(=O)C(NC(=O)C(CCCCN)NC(=S)Nc2ccc(Cl)cc2)C(C)C)C(=O)OCc2c1cc1n(c2=O)Cc2cc3ccccc3nc2-1 (stereo partly drawn) [4.6), 20-O-[N^α-(4-Chloro-phenylamino-thiocarbonyl)-lysyl-valyl]-camptothecin, hydrochloride]",150 nM,200 nM,500 nM,
"CCC1(OC(=O)C(NC(=O)C(CCCCN)NC(=S)Nc2cccc([N+](=O)[O-])c2)C(C)C)C(=O)OCc2c1cc1n(c2=O)Cc2cc3ccccc3nc2-1 (stereo not drawn) [4.17), 20-O-[N^α-(3-Nitro-phenylamino-thiocarbonyl)-lysyl-valyl]-camptothecin, hydrochloride]",170 nM,300 nM,800 nM,
"CCC1(OC(=O)[C@H](CC(C)C)NC(=O)[C@H](CCCCN)NC(=S)Nc2ccc(O)cc2)C(=O)OCc2c1cc1n(c2=O)Cc2cc3cc4c(cc3nc2-1)OCO4 (stereo partly drawn) [6), 10,11-(Methylenedioxy)-20-O-[N^α-(4-hydroxy-phenylaminothio-carbonyl)-lysyl-leucyl]-camptothecin, hydrochloride]",3 nM,5 nM,15 nM,
"CN(C(=S)NC(CCCCN)C(=O)NC1C=CCC2CN(c3c(F)cc4c(=O)c(C(=O)O)cn(C5CC5)c4c3Cl)CC21)c1ccccc1 (racemic) [2.10), N-[N^α-(Phenyl-methyl-amino-thiocarbonyl)-lysyl]-quinolone-a]",2000 nM,2000 nM,400 nM,
"CCc1c2c(nc3ccccc13)-c1cc3c(c(=O)n1C2)COC(=O)C3(CC)OC(=O)C(C)NC(=O)C(CCCCNC(=S)Nc1ccc(O)cc1)NC(=S)Nc1ccc(O)cc1 (stereo not drawn) [5.1), 7-Ethyl-20-O-[N^α,N^ε-bis-(4-hydroxy-phenylamino-thiocarbonyl)-lysyl-alanyl]-camptothecin]",20 nM,25 nM,50 nM,
"CC[C@@]1(OC(=O)[C@@H](NC(=O)[C@H](CCCCN)NC(=S)Nc2cccc(O)c2)C(C)C)C(=O)OCc2c1cc1n(c2=O)Cc2cc3ccccc3nc2-1 [4.12), 20-O-[N^α-(3-Hydroxy-phenylamino-thiocarbonyl)-lysyl-valyl]-camptothecin, hydrochloride]",30 nM,40 nM,200 nM,
"CCC1(OC(=O)[C@@H](C)NC(=O)C(CCCCNC(=S)Nc2ccc(O)cc2)NC(=S)Nc2ccc(O)cc2)C(=O)OCc2c1cc1n(c2=O)Cc2cc3ccccc3nc2-1 (stereo partly drawn) [4.10), 20-O-[N^α,N^ε-bis-(4-Hydroxy-phenylamino-thiocarbonyl)-lysyl-D-alanyl]-camptothecin]",10 nM,20 nM,200 nM,
"CC[C@@]1(OC(=O)C(CC(=O)O)NC(=O)C(CCCCNC(=S)Nc2ccc(O)cc2)NC(=S)Nc2ccc(O)cc2)C(=O)OCc2c1cc1n(c2=O)Cc2cc3ccccc3nc2-1 (stereo partly drawn) [4.22), 20-O-[N^α,N^ε-bis-(4-Hydroxy-phenylamino-thiocarbonyl)-lysyl-aspartyl]-camptothecin, sodium salt]",40 nM,40 nM,100 nM,
"CCC1(OC(=O)C(NC(=O)C(CCCCN)NC(=S)Nc2ccc([N+](=O)[O-])cc2)C(C)C)C(=O)OCc2c1cc1n(c2=O)Cc2cc3ccccc3nc2-1 (stereo not drawn) [4.16), 20-O-[N^α-(4-Nitro-phenylamino-thiocarbonyl)-lysyl-valyl]-camptothecin, hydrochloride]",120 nM,150 nM,600 nM,
"CCC1(OC(=O)C(CO)NC(=O)C(CCCCNC(=S)Nc2ccc(O)cc2)NC(=S)Nc2ccc(O)cc2)C(=O)OCc2c1cc1n(c2=O)Cc2cc3ccccc3nc2-1 (stereo not drawn) [4.23), 20-O-[N^α,N^ε-bis-(4-Hydroxy-phenylamino-thiocarbonyl)-lysyl-seryl]-camptothecin]",70 nM,80 nM,150 nM,
"CCc1c2c(nc3ccc(O)cc13)-c1cc3c(c(=O)n1C2)COC(=O)C3(CC)OC(=O)[C@@H](NC(=O)[C@H](CCCCN)NC(=S)Nc1ccc(O)cc1)C(C)C (stereo partly drawn) [8), 7-Ethyl-10-hydroxy-20-O-[N^α-(4-hydroxy-phenylamino-thiocarbonyl)-lysyl-valyl]-camptothecin, hydrochloride]",200 nM,150 nM,3000 nM,
"CC(NC(=O)C(CCCCN)NC(=S)Nc1ccc(O)cc1)C(=O)NC1C=CCC2CN(c3c(F)cc4c(=O)c(C(=O)O)cn(C5CC5)c4c3Cl)CC21 (racemic) [2.11), N-[N^α-(4-Hydroxy-phenylamino-thiocarbonyl)-lysyl-D-alanyl]-quinolone-a]",150000 nM,60000 nM,30000 nM,
"CCC1(OC(=O)C(NC(=O)C(CCCCN)NC(=S)N(C)c2ccccc2)C(C)C)C(=O)OCc2c1cc1n(c2=O)Cc2cc3ccccc3nc2-1 (stereo not drawn) [4.8), 20-O-[N^α-(Phenyl-methyl-amino-thiocarbonyl)-lysyl-valyl]-camptothecin, hydrochloride]",150 nM,300 nM,800 nM,
